Assay results taken from patent publication EP3118202A1, “DIHYDROPYRIDOPYRROLE DERIVATIVES AS TAU-PET-LIGANDS” (AC Immune S.A., priority 2015, dated 2017).

Legend:
[1] = system: tau tangles/Aβ plaques on AD brain sections; experiment: Direct staining of human Alzheimer's disease brain sections (Assay 1, fluorescence based assay); type: binding; set-up: key to Direct staining of tau tangles/Aβ plaques on AD brain sections at 100 µM: - (No); +++ (strong); ++ (good); + (weak); conditions: for Direct staining of tau tangles/Aβ plaques on AD brain sections at 100 µM: 100 µM in 50% ethanol in water, 20 min, room temperature, frozen amygdala sections, Braak stage V-VI; for Direct staining of tau tangles/Aβ plaques on AD brain sections at 100 µM: structure stained: structure (tangles or plaques) that was stained
Method: Assay 1 (Fluorescence based assay):
Direct binding of compounds of this invention to human Alzheimer's disease brain sections
Frozen sections with a thickness of […] from the amygdala of donors diagnosed with Braak stage V-VI Alzheimer's Disease (Braak, H.; Braak, E. Acta Neuropathol., 1991, 82, 239-259), were purchased from a commercial provider (Tissue Solutions) and kept at -80°C until use.
Direct staining of human Alzheimer's disease brain sections
Brain sections were encircled with pap pen liquid blocker to reduce the volume of solution for the different incubations. Sections were fixed for 15 min at 4°C with 4% paraformaldehyde and washed three times 5 minutes with PBS at room temperature. Test compounds were incubated on the sections at 100 µM in 50% ethanol in water for 20 min at room temperature in the dark and then washed three times 5 minutes with PBS. To reduce the auto-fluorescence of the tissue, the sections were incubated in a solution of 0.1% Sudan Black (Sigma 199664) in 70% ethanol for 15 min at room temperature in the dark, washed four times for 5 minutes with PBS, and mounted using ProLong Gold Antifade reagent (Invitrogen P36930). Sections were then analyzed on the Nikon Eclipse Ti microscope to detect staining and imaged using Nikon DS-Fi2 camera and NIS-Element AR4.13.1 software.

[2] = target: T1, MAO-A human - recombinant (Homo sapiens, UniProt P21397); experiment: Monoamine oxidase A (MAO-A) assay (MAO-Glo Assay); type: biochemical; conditions: MAO substrate 40 µM; 1 hour at room temperature; read-out: MAO A binding
T1 construct: purchased Sigma-Aldrich M7316
T1 sequence (P21397 1-527): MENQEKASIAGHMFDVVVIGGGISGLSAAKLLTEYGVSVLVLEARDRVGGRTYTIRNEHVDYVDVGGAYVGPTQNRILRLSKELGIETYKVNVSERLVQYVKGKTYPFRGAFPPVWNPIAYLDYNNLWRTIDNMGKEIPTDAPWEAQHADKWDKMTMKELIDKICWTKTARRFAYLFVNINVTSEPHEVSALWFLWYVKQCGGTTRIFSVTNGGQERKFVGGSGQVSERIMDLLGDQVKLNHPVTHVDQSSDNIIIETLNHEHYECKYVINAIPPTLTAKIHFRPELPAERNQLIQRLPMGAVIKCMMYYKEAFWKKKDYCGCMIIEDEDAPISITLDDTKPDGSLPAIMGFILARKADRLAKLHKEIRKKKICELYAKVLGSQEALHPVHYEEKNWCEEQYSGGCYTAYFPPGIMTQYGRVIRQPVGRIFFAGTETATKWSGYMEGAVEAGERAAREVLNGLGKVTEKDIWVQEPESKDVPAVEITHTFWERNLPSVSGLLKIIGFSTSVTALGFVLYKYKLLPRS
Method: Monoamine oxidase A (MAO-A) assay
Compounds were tested for their capacity to modulate MAO-A activity within the MAO-Glo™ Assay (Promega, Cat.# V1402). In each well of a 96-well plate, 12.5 µl of 4X MAO Substrate solution (end-concentration in assay: 40 µM) were mixed with 12.5 µl of a 4X solution of the corresponding test compound (end-concentrations ranged from 10 µM to 1.37 nM). In the absence of a test compound (i.e. to gauge the total MAO-A activity), the corresponding volume of MAO Reaction Buffer (100 mM HEPES (pH 7.5), 5% glycerol) was added. To initiate the MAO reaction, 25 µl of 2X MAO-A enzyme solution (MAO-A human - recombinant, Sigma-Aldrich, Cat.# M7316; 1 µg MAO-A enzyme/25 µl MAO Reaction Buffer) were added per well and mixed briefly. For negative control reactions, 25µl of MAO Reaction Buffer were added. Thereafter the plate was incubated at room temperature for 1 hour, following which, 50 µl of reconstituted Luciferin Detection Reagent were added per well and mixed briefly. The plate was then incubated at room temperature for 20 minutes to generate and stabilize the luminescent signal. The luminescent signal was subsequently measured and recorded on the TopCountNXT™ luminescence counter (PerkinElmer). Data were analyzed and graphs were prepared using the Graphpad Prism 6 software.

[3] = target: T2, MAO-B human - recombinant (Homo sapiens, UniProt P27338); experiment: MAO-B assay (MAO-Glo Assay); type: biochemical; conditions: MAO substrate 4 µM; 1 hour at room temperature; read-out: MAO B binding
T2 construct: purchased Sigma-Aldrich M7441
T2 sequence (P27338 1-520): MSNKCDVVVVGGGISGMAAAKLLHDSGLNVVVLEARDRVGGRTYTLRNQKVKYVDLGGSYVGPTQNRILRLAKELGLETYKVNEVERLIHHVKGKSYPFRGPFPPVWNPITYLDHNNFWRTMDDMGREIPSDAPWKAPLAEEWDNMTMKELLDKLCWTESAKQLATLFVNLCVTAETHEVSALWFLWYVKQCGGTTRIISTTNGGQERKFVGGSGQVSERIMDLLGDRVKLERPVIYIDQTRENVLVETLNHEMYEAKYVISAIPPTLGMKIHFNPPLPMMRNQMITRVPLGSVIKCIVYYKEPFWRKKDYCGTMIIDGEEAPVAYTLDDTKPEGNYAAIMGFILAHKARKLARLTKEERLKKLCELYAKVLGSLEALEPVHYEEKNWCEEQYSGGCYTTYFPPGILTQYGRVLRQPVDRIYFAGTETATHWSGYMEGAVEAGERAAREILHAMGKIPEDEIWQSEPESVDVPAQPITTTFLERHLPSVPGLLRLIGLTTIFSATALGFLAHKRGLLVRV
Method: Compounds were tested for their capacity to modulate MAO-B activity within the MAO-Glo™ Assay (Promega, Cat.# V1402). In each well of a 96-well plate, 12.5 µl of 4X MAO Substrate solution (end-concentration in assay: 4 µM) were mixed with 12.5 µl of a 4X solution of the corresponding test compound (end-concentrations ranged from 10 µM to 1.37 nM). In the absence of a test compound (i.e. to gauge the total MAO-B activity), the corresponding volume of MAO-B Reaction Buffer (100 mM HEPES (pH 7.5), 5% glycerol, 10% dimethyl sulphoxide) was added. To initiate the MAO reaction, 25 µl of 2X MAO-B enzyme solution (MAO-B human - recombinant, Sigma-Aldrich, Cat.# M7441; 1 µg MAO-B enzyme/25 µl MAO-B Reaction Buffer) were added per well and mixed briefly. For negative control reactions, 25µl of MAO-B Reaction Buffer were added. Thereafter the plate was incubated at room temperature for 1 hour, following which, 50 µl of reconstituted Luciferin Detection Reagent were added per well and mixed briefly. The plate was then incubated at room temperature for 20 minutes to generate and stabilize the luminescent signal. The luminescent signal was subsequently measured and recorded on the TopCountNXT™ luminescence counter (PerkinElmer). Data were analyzed and graphs were prepared using the Graphpad Prism 6 software.

## CCn1c2ccncc2c2ccc(N3CCC(OCCF)CC3)nc21 [Example 1]
[1]
  Direct staining of tau tangles/Aβ plaques on AD brain sections at 100 µM: -

## CN(CCF)C1CCN(c2ccc3c4cnccc4n(C)c3n2)CC1 [Example 3]
[1]
  Direct staining of tau tangles/Aβ plaques on AD brain sections at 100 µM: -

## Cn1c2ccncc2c2ccc(N3CCC(OCC(O)CF)CC3)nc21 (stereo not drawn) [Example 5]
[1]
  Direct staining of tau tangles/Aβ plaques on AD brain sections at 100 µM: ++
  Direct staining of tau tangles/Aβ plaques on AD brain sections at 100 µM: structure stained: (tangles)
[2]
  IC50: 430 nM
[3]
  IC50: > 1000 nM

## CCn1c2ccncc2c2ccc(N3CCC(OCC(O)CF)CC3)nc21 (stereo not drawn) [Example 6]
[1]
  Direct staining of tau tangles/Aβ plaques on AD brain sections at 100 µM: ++
  Direct staining of tau tangles/Aβ plaques on AD brain sections at 100 µM: structure stained: (tangles)

## OC(CF)COC1CCN(c2ccc3c(n2)[nH]c2ccncc23)CC1 (stereo not drawn) [Example 10]
[2]
  IC50: 790 nM
[3]
  IC50: > 1000 nM

## Cn1c2ccncc2c2ccc(N3CCN(CC(O)CF)CC3)nc21 (stereo not drawn) [Example 12]
[1]
  Direct staining of tau tangles/Aβ plaques on AD brain sections at 100 µM: +
  Direct staining of tau tangles/Aβ plaques on AD brain sections at 100 µM: structure stained: (tangles)
[2]
  IC50: 940 nM
[3]
  IC50: > 1000 nM

## Cn1c2ccncc2c2ccc(N3CC4CC(C3)C4OCCF)nc21 (stereo not drawn) [Example 13]
[1]
  Direct staining of tau tangles/Aβ plaques on AD brain sections at 100 µM: ++
  Direct staining of tau tangles/Aβ plaques on AD brain sections at 100 µM: structure stained: (tangles)

## Cn1c2ccncc2c2ccc(N3CCC(COCCF)CC3)nc21 [Example 14]
[1]
  Direct staining of tau tangles/Aβ plaques on AD brain sections at 100 µM: -

## Cn1c2ccncc2c2ccc(N3CCOC(CCF)C3)nc21 (stereo not drawn) [Example 16]
[1]
  Direct staining of tau tangles/Aβ plaques on AD brain sections at 100 µM: -
